As a reminder, the IC50 is the concentration needed to halve the response being measured.

The assay is described as follows: Concentration required for inhibition of serine/threonine protein phosphatase calcineurin (CAN).

Regarding `CC[C@@H]1/C=C(\C)C[C@H](C)C[C@H](OC)[C@H]2O[C@@](O)(C(=O)C(=O)N3CCCC[C@H]3C(=O)O[C@H](/C(C)=C/[C@@H]3CC[C@@H](OCCCc4ccccc4)[C@H](OC)C3)[C@H](C)[C@@H](O)CC1=O)[C@H](C)C[C@@H]2OC` [C32-O-Phenalkyl ether derivative of Ascomycin], the IC50 amounted to 0.014 µM.

For `CC[C@@H]1/C=C(\C)C[C@H](C)C[C@H](OC)[C@H]2O[C@@](O)(C(=O)C(=O)N3CCCC[C@H]3C(=O)O[C@H](/C(C)=C/[C@@H]3CC[C@@H](OCCc4ccccc4)[C@H](OC)C3)[C@H](C)[C@@H](O)CC1=O)[C@H](C)C[C@@H]2OC` [C32-O-Phenalkyl ether derivative of Ascomycin], the IC50 was 0.0072 µM.

The record behind these values is BindingDB's records for doi:10.1016/s0960-894x(99)00335-2 (Merck Research Laboratories, 1999).
